According to US20260184708A1, “PYRIDAZINONES AND METHODS OF USE THEREOF” (GFB (ABC), LLC, priority 2017, published 2026):

molecular target: T1, TRPC4 (Homo sapiens, UniProt Q9UBN4); assay: TRPC4 FLIPR Assay (HEK-TREx hTRPC4, Englerin A stimulation); assay type: cell-based; settings: not given
T1 construct: expressed in transfected cells; host or cells: HEK-TREx (HekTrex-293), cell line ICLN-1694, tetracycline-induced
T1 sequence (Q9UBN4 1-982 isoform Q9UBN4-5): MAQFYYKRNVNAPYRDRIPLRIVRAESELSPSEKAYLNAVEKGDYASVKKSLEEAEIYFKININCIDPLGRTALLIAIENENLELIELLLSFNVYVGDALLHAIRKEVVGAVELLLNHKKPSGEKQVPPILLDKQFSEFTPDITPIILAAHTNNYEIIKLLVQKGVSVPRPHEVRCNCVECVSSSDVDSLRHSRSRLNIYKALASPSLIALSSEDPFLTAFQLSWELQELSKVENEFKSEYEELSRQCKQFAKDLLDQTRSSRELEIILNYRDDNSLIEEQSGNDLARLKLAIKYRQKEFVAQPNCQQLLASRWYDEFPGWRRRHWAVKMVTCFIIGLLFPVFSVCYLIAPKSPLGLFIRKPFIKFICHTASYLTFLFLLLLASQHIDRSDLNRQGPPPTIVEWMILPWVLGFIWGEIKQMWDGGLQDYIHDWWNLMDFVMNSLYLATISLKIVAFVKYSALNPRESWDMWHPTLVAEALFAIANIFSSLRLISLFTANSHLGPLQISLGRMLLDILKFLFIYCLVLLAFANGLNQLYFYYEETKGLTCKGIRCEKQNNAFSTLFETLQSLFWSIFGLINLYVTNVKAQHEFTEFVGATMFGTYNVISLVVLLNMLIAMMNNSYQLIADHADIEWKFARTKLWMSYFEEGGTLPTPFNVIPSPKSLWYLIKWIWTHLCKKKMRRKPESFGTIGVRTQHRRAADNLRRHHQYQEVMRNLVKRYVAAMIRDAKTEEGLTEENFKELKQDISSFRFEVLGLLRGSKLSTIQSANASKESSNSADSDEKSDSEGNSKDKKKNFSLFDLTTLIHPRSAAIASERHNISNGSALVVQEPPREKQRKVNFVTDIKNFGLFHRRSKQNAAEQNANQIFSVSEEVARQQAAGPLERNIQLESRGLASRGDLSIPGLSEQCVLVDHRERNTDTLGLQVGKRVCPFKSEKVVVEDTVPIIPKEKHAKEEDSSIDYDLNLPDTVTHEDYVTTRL
Description: FLIPR Assay Buffer (Earls Balanced Salt Solution (EBSS)) was prepared as follows:
10-point dose response curves were generated using the Echo-550 acoustic dispenser. Compound source plates were made by serially diluting compound stocks to create 10 mM, 1 mM, and 0.1 mM solutions in DMSO into Echo certified LDV plates. The Echo then serially spotted 100% DMSO stock solutions into source dose response plates to generate a 4-fold dilution scheme. 100% DMSO was added to the spotted dose response plates to bring the final volume to 5 μl. […] of the dose response stock plate was then spotted into pre-incubation and stimulation assay plates. […] of pre-incubation buffer and 100 μl of stimulation buffer was then added to the plates resulting in a final assay test concentration range of 30 μM to 0.0001 μM with a final DMSO concentration of 0.3%.
Experimental Methods: Cells expressing TRPC4 were plated onto 384 well, black pdl-coated microplates and maintained in TRPC4 growth media the day prior to use for experiments. TRPC4 expression was induced by the application of 1 μg/ml tetracycline at the time of plating. […] Cells were incubated at room temperature, protected from light, for 60-90 minutes. After the incubation period, the dye was removed and replaced with 10 μl of EBSS. Cell, pre-incubation and stimulation plates were loaded onto the FLIPR-II and the assay was initiated. The FLIPR measured a 10 second baseline and then added 10 μl of 2× compounds (or controls). Changes in fluorescence were monitored for an additional 5 minutes. After a 5 minute pre-incubation, 20 μl of 2× Englerin A (with 1× compound or controls) was added to the cell plate. The final Engerlin A stimulation concentration in the assay is 100 nM. After the Englerin A addition, changes in fluorescence were monitored for an additional 5 minutes.
Test Agent Effect: Test agent modulation of TRPC4 calcium response was determined as follows. After the Englerin A, fluorescence was monitored for a 5 minute period. The maximum relative fluorescence response (minus the control response of […] of the control inhibitor) was captured and exported from the FLIPR. Test agent effect was calculated as % inhibition using the following formula: % inhibition=((RFU TEST AGENT−Plate Average RFU REF INHIB)/(Plate Average RFU CONTROL−Plate Average RFU REF INHIB))×100

SMILES	IC50 [nM]
O=C1CN(c2cn[nH]c(=O)c2Cl)CCN1Cc1cc(F)ccc1C(F)(F)F	0.01 to 1000

same assay, conditions: Table 8; HEK-TREx hTRPC4; read-out: TRPC4 FLIPR IC50

SMILES	IC50 [nM]
C[C@H](c1ccc(F)cc1C(F)(F)F)n1nnc2c1CCN(c1cn[nH]c(=O)c1Cl)[C@H]2C [drawing 976]	0.01 to 1000
CN(c1ncc2c(n1)CN(c1cn[nH]c(=O)c1Cl)C2)c1ccc(F)cc1Cl [drawing 1003]	0.01 to 1000
O=c1[nH]ncc(N2CCc3c(ncn3Cc3ccccc3C(F)(F)F)C2)c1Cl [drawing 944]	0.01 to 1000
CCc1nccc(C)c1CN1CCN(c2cn[nH]c(=O)c2Cl)CC1	1000 to 5000
O=C1CN(c2cn[nH]c(=O)c2Cl)CCN1Cc1ccc(F)cc1Cl [drawing 1013]	0.01 to 1000
C[C@H](c1ccccc1C(F)(F)F)n1nnc2c1CCN(c1cn[nH]c(=O)c1Cl)[C@H]2C [drawing 970]	0.01 to 1000
CCc1ncccc1N(C)c1ncc2c(n1)CN(c1cn[nH]c(=O)c1Cl)C2 [drawing 1006]	0.01 to 1000
O=C1CN(c2cn[nH]c(=O)c2Cl)CCN1Cc1ccccc1C(F)F	0.01 to 1000
C[C@@H]1Cc2c(c(C(N)=O)nn2Cc2ccccc2C(F)(F)F)CN1c1cn[nH]c(=O)c1Cl [drawing 986]	0.01 to 1000
CCc1ncccc1CN1CCN(c2cn[nH]c(=O)c2Cl)CC1	0.01 to 1000
CCS(=O)(=O)c1nc2c(n1Cc1ccccc1C(F)(F)F)CCN(c1cn[nH]c(=O)c1Cl)C2 [drawing 971]	0.01 to 1000
O=C1CN(c2cn[nH]c(=O)c2Cl)CCN1Cc1ccccc1Cl	0.01 to 1000
CCc1ncccc1CN1CCN(c2cn[nH]c(=O)c2C#N)CC1	5000 to 10000
COC[C@H](c1ccccc1C(F)(F)F)n1cnc2c1CCN(c1cn[nH]c(=O)c1Cl)C2 [drawing 988]	0.01 to 1000
C[C@@H](c1ccc(F)cc1C(F)(F)F)n1nnc2c1CCN(c1cn[nH]c(=O)c1Cl)C2	0.01 to 1000
O=c1[nH]ncc(N2CCc3c(ncn3Cc3ccccc3OC(F)(F)F)C2)c1Cl	0.01 to 1000
Cc1ccccc1CN1C[C@@H](C)N(c2cn[nH]c(=O)c2Cl)CC1=O	5000 to 10000
CCN(c1ncc2c(n1)CN(c1cn[nH]c(=O)c1Cl)C2)c1ccccc1Cl [drawing 1004]	0.01 to 1000
CNC(=O)c1nc2c(n1Cc1ccccc1C(F)(F)F)CCN(c1cn[nH]c(=O)c1Cl)C2 [drawing 996]	0.01 to 1000
C[C@H](c1ccc(F)cc1C(F)(F)F)N1C[C@@H](C)N(c2cn[nH]c(=O)c2Cl)CC1=O [drawing 992]	0.01 to 1000

SMILES	IC50 [nM]
Cc1ccccc1[C@H](C)N1CCN(c2cn[nH]c(=O)c2Cl)CC1=O [drawing 1020]	10000 to 500000
O=c1[nH]ncc(N2CCc3c(c(=O)[nH]n3Cc3ccccc3C(F)(F)F)C2)c1Cl [drawing 972]	0.01 to 1000
Cc1ccccc1[C@@H](C)N1CCN(c2cn[nH]c(=O)c2Cl)CC1=O	0.01 to 1000
C[C@@H](c1ccc(F)cc1C(F)F)n1nnc2c1CCN(c1cn[nH]c(=O)c1Cl)C2 [drawing 981]	0.01 to 1000
CCc1ccccc1Cn1cnc2c1CCN(c1cn[nH]c(=O)c1Cl)C2	0.01 to 1000
C[C@@H](c1ccccc1)n1nnc2c1CCN(c1cn[nH]c(=O)c1Cl)C2	1000 to 5000
O=c1[nH]ncc(N2CCc3c(ncn3Cc3ccccc3C(F)F)C2)c1Cl [drawing 952]	0.01 to 1000
C[C@@H](c1ccccc1C(F)(F)F)N1CCN(c2cn[nH]c(=O)c2Cl)CC1=O [drawing 987]	0.01 to 1000
C[C@@H](c1ccc(F)cc1C(F)(F)F)N1CCN(c2cn[nH]c(=O)c2Cl)CC1=O [drawing 993]	0.01 to 1000
Cc1ncccc1CN1CCN(c2cn[nH]c(=O)c2Cl)CC1 [drawing 1017]	1000 to 5000
CC(c1ccc(F)cc1C(F)F)n1[nH]c(=O)c2c1CCN(c1cn[nH]c(=O)c1Cl)C2 (stereo not drawn)	0.01 to 1000
O=c1[nH]ncc(N2CCc3c(ncn3Cc3ccc(F)cc3C(F)F)C2)c1Cl [drawing 960]	0.01 to 1000
O=c1[nH]ncc(N2CCc3c(ncn3Cc3ccccc3Cl)C2)c1Cl [drawing 1000]	0.01 to 1000
O=c1[nH]ncc(N2CCc3c(ncn3-c3ccccc3C(F)(F)F)C2)c1Cl [drawing 954]	1000 to 5000
O=C1CN(c2cn[nH]c(=O)c2Cl)CCN1Cc1ccccc1OC(F)(F)F [drawing 1015]	0.01 to 1000
C[C@@H]1Cc2c(nnn2[C@@H](C)c2ccccc2C(F)(F)F)CN1c1cn[nH]c(=O)c1Cl [drawing 968]	0.01 to 1000
C[C@H](c1ccccc1Cl)n1nnc2c1CCN(c1cn[nH]c(=O)c1Cl)C2 [drawing 995]	0.01 to 1000
O=c1[nH]ncc(N2CCc3c(nnn3Cc3ccccc3C(F)(F)F)C2)c1Cl [drawing 948]	0.01 to 1000
Cc1ccccc1CN1CCN(c2cn[nH]c(=O)c2Br)CC1=O	0.01 to 1000
C[C@@H](c1ccccc1Cl)n1nnc2c1CCN(c1cn[nH]c(=O)c1Cl)C2 [drawing 1001]	0.01 to 1000

SMILES	IC50 [nM]
N#Cc1c(N2CCc3c(nnn3Cc3ccccc3C(F)(F)F)C2)cn[nH]c1=O [drawing 959]	1000 to 5000
CCc1cc(F)ccc1Cn1cnc2c1CCN(c1cn[nH]c(=O)c1Cl)C2 [drawing 958]	0.01 to 1000
CS(=O)(=O)c1nc2c(n1Cc1ccccc1C(F)(F)F)CCN(c1cn[nH]c(=O)c1Cl)C2 [drawing 1002]	0.01 to 1000
O=C1CN(c2cn[nH]c(=O)c2Br)CCN1Cc1cccc2ccccc12 [drawing 1009]	0.01 to 1000
CN1CCN(Cc2nn(Cc3ccccc3C(F)F)c3c2CN(c2cn[nH]c(=O)c2Cl)CC3)C(=O)C1 [drawing 975]	0.01 to 1000
C[C@@H](c1cccnc1CC(F)F)n1nnc2c1CCN(c1cn[nH]c(=O)c1Cl)C2 [drawing 991]	0.01 to 1000
C[C@H](c1ccccc1C(F)(F)F)n1nc(C(N)=O)c2c1CCN(c1cn[nH]c(=O)c1Cl)C2 [drawing 990]	0.01 to 1000
C[C@H](c1ccccc1)n1cnc2c1CCN(c1cn[nH]c(=O)c1Cl)C2 [drawing 940]	0.01 to 1000
COCc1ccccc1Cn1cnc2c1CCN(c1cn[nH]c(=O)c1Cl)C2 [drawing 965]	0.01 to 1000
C[C@@H]1Cc2c(nnn2[C@@H](C)c2ccc(F)cc2C(F)(F)F)CN1c1cn[nH]c(=O)c1Cl [drawing 974]	0.01 to 1000
C[C@@H](c1ccccc1C(F)F)n1nnc2c1CCN(c1cn[nH]c(=O)c1Cl)C2 [drawing 980]	0.01 to 1000
CNC(=O)c1nn([C@H](C)c2ccccc2C(F)F)c2c1CN(c1cn[nH]c(=O)c1Cl)CC2 [drawing 982]	0.01 to 1000
N#Cc1c(N2CCc3c(ncn3Cc3ccccc3C(F)(F)F)C2)cn[nH]c1=O [drawing 956]	1000 to 5000
COc1cc(F)ccc1CN1CCN(c2cn[nH]c(=O)c2Cl)CC1=O [drawing 1021]	1000 to 5000
O=c1[nH]ncc(N2CCN(Cc3ccccc3Cl)CC2)c1Cl [drawing 1010]	1000 to 5000
Cc1ccccc1Cn1cnc2c1CCN(c1cn[nH]c(=O)c1Cl)C2 [drawing 938]	0.01 to 1000
CCc1ncccc1CN1CCN(c2cn[nH]c(=O)c2Cl)C(C)C1 (stereo not drawn)	5000 to 10000
C[C@@H](c1ccccc1C(F)(F)F)n1nnc2c1CCN(c1cn[nH]c(=O)c1Cl)C2 [drawing 962]	0.01 to 1000

same assay, conditions: Table 10; HEK-TREx hTRPC4; read-out: TRPC4-FLIPR ICSO

SMILES	IC50 [nM]
CN1CCN(Cc2nn(Cc3ccccc3C(F)F)c3c2CN(c2cn[nH]c(=O)c2Cl)CC3)C(=O)C1 [drawing 1091]	0.01 to 1000
